Key:
[1] = molecular target: dopaminergic D3 receptor (Homo sapiens, UniProt P35462); experiment: Binding assay D3 (h), [3H]methyl-spiperone, CHO cells; design: expressed in transfected cells; host or cells: CHO cells; settings: read-out: D3 [%]
Summary of the method: (§1)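 Compounds tested at a single 1×10^−6 M concentration against the listed radioligands; bound label counted by scintillation, with non-specific binding defined by excess unlabelled ligand and subtracted from total.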

[2] = molecular target: T1, serotoninergic receptor 5-HT2C (Homo sapiens, UniProt P28335); experiment: Binding assay 5-HT2C (h), [3H]mesulergine, HEK-293 cells; settings: read-out: 5-HT2C [%]
T1 construct: expressed in transfected cells; host or cells: HEK-293 cells
T1 sequence (P28335 33-458): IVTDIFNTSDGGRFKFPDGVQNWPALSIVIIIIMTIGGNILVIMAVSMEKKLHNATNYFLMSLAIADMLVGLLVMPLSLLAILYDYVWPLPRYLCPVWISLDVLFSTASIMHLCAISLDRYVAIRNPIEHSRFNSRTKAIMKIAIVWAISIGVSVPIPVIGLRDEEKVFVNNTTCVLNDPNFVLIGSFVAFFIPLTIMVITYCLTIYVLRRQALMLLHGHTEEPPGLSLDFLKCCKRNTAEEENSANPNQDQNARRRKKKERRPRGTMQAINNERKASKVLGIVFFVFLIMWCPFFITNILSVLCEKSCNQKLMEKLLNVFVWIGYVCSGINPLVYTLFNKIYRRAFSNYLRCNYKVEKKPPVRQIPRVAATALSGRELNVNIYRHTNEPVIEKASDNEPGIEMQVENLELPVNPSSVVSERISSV
Summary of the method: as §1

[3] = molecular target: T2, adrenergic α2C receptor (Homo sapiens, UniProt P18825); experiment: Binding assay α2C (h), [3H]RX 821002, CHO cells; design: expressed in transfected cells; host or cells: CHO cells; settings: read-out: α2C [%]
T2 sequence (P18825 1-462): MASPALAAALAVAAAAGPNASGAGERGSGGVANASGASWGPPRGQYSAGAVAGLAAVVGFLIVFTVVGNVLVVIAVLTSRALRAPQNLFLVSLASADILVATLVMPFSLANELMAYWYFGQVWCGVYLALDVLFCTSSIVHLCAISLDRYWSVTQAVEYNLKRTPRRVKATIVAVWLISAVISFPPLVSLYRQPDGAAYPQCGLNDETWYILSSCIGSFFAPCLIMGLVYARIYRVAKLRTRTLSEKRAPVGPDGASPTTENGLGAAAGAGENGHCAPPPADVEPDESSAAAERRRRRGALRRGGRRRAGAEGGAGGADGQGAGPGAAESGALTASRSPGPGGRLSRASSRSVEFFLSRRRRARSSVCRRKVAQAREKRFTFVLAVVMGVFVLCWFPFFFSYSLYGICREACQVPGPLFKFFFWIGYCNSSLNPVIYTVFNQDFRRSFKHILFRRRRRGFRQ
Summary of the method: as §1

[4] = molecular target: dopaminergic D2 receptor (Homo sapiens, UniProt P14416); experiment: Binding assay D2S (h), [3H]methyl-spiperone, HEK-293 cells; design: expressed in transfected cells; host or cells: HEK-293 cells; settings: read-out: D2 [%]
Summary of the method: as §1

[5] = molecular target: T3, serotonine transporter (SERT) receptor (Homo sapiens, UniProt P31645); experiment: Binding assay SERT (h), [3H]imipramine, CHO cells; settings: read-out: SERT [%]
T3 construct: expressed in transfected cells; host or cells: CHO cells
Summary of the method: as §1

[6] = molecular target: T4, serotoninergic 5-HT1A receptor (Homo sapiens, UniProt P08908); experiment: Binding assay 5-HT1A (h), [3H]8-OH-DPAT, HEK-293 cells; design: expressed in transfected cells; host or cells: HEK-293 cells; settings: read-out: 5-HT1A
T4 sequence (P08908 1-422): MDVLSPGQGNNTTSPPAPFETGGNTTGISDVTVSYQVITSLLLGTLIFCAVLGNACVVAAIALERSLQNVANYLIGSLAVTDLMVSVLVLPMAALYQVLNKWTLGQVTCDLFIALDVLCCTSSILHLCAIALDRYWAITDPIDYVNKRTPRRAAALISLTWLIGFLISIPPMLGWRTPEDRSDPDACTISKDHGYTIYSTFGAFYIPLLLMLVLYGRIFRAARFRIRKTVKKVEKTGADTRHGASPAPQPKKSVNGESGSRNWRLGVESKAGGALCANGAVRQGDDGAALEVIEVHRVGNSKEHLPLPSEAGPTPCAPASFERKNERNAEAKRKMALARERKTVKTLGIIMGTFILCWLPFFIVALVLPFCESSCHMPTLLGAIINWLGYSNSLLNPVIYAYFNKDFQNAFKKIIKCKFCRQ
Summary of the method: as §1

[7] = molecular target: serotoninergic 5-HT6 receptor (Homo sapiens, UniProt P50406); experiment: Binding assay 5-HT6 (h), [3H]LSD, CHO cells; design: expressed in transfected cells; host or cells: CHO cells; settings: read-out: 5-HT6
Summary of the method: as §1

[8] = molecular target: serotoninergic 5-HT7 receptor (Homo sapiens, UniProt P34969); experiment: Binding assay 5-HT7 (h), [3H]LSD, CHO cells; design: expressed in transfected cells; host or cells: CHO cells; settings: read-out: 5-HT7
Summary of the method: as §1

[9] = molecular target: histaminergic H1 receptor (Homo sapiens, UniProt P35367); experiment: Binding assay H1 (h), [3H]pyrilamine, HEK-293 cells; design: expressed in transfected cells; host or cells: HEK-293 cells; settings: read-out: H1 [%]
Summary of the method: as §1

[10] = molecular target: hERG potassium channels (Homo sapiens, UniProt Q12809)
[11] = molecular target: serotoninergic 5-HT2A receptor (Homo sapiens, UniProt P28223); experiment: Binding assay 5-HT2A (h), [3H]ketanserin, HEK-293 cells; design: expressed in transfected cells; host or cells: HEK-293 cells; settings: read-out: 5-HT2A
Summary of the method: as §1

[12] = molecular target: T5, muscarinic M3 receptor (Homo sapiens, UniProt P20309); experiment: Binding assay M3 (h), [3H]4-DAMP, CHO cells; settings: read-out: M3 [%]
T5 construct: expressed in transfected cells; host or cells: CHO cells
Summary of the method: as §1

[13] = tested on: sigma σ receptor; experiment: Binding assay σ (non-selective), [3H]DTG, rat cerebral cortex; settings: percent inhibition of control specific binding; compounds tested at 1×10^−6 M
Summary of the method: as §1

[14] = tested on: adrenergic α1 receptor; experiment: Binding assay α1 (non-selective), [3H]prazosin, rat cerebral cortex; settings: percent inhibition of control specific binding; compounds tested at 1×10^−6 M
Summary of the method: as §1

Sequence of hERG potassium channels (Q12809 whole entry): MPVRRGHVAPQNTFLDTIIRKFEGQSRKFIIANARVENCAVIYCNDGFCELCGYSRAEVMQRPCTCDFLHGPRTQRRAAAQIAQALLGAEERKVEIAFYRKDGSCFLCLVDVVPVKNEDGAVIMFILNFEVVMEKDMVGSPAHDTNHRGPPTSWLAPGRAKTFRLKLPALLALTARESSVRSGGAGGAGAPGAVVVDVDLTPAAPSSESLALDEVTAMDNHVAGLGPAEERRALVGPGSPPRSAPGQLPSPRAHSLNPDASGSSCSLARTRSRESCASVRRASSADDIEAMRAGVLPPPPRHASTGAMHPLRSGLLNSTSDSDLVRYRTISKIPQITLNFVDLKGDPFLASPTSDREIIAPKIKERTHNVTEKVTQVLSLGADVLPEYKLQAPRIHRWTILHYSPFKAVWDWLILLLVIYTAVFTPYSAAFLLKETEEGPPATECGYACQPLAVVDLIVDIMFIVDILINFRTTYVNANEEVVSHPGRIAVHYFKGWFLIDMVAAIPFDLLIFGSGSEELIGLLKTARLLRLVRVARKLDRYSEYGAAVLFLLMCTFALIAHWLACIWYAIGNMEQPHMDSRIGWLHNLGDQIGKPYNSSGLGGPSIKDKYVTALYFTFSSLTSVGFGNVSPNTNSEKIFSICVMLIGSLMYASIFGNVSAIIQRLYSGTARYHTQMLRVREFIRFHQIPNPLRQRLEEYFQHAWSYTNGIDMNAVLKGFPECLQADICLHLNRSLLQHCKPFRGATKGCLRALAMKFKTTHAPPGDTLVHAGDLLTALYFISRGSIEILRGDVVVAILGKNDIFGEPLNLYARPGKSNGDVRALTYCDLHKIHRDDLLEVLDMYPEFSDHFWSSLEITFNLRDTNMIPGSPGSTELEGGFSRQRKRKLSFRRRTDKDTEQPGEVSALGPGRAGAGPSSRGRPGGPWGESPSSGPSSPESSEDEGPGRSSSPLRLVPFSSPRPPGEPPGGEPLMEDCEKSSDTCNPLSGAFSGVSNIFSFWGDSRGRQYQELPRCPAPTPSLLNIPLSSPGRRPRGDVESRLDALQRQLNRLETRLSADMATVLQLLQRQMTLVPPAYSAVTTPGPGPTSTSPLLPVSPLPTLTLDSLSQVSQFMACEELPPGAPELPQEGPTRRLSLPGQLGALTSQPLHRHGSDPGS
Sequence of dopaminergic D2 receptor (P14416 1-414 isoform P14416-2): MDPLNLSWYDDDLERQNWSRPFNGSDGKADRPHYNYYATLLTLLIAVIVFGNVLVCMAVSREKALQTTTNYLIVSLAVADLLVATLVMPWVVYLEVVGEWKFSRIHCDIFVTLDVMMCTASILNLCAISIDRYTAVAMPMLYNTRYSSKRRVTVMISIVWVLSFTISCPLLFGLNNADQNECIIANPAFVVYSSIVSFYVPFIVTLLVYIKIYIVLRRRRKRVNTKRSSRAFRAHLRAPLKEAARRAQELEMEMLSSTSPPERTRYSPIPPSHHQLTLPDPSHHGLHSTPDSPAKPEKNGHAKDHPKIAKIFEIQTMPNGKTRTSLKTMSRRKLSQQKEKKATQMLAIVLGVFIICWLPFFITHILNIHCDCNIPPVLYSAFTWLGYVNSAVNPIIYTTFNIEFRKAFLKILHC
Sequence of dopaminergic D3 receptor (P35462 whole entry): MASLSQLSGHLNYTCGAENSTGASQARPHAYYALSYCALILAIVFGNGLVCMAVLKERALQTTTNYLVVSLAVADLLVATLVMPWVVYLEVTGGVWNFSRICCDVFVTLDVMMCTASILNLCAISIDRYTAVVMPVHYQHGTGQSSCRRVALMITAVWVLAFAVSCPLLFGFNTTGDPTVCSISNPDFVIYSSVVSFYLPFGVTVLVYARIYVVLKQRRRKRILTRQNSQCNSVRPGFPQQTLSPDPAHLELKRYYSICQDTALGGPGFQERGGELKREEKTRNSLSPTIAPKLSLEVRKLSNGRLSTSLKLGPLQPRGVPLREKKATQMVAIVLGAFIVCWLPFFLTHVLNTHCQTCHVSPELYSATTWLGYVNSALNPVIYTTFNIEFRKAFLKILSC
Sequence of histaminergic H1 receptor (P35367 whole entry): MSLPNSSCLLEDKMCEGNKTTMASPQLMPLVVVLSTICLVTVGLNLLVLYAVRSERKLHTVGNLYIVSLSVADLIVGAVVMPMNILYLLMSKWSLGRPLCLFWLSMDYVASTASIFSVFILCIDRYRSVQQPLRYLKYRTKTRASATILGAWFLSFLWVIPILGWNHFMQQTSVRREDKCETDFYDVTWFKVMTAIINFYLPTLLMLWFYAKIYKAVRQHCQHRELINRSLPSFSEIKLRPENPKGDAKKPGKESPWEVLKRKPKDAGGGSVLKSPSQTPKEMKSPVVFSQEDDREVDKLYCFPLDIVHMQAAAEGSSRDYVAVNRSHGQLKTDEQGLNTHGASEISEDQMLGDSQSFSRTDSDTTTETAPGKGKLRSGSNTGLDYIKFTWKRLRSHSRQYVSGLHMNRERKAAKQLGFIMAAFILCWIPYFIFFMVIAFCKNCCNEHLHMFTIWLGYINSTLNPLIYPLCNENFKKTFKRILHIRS
T3 sequence (P31645 whole entry): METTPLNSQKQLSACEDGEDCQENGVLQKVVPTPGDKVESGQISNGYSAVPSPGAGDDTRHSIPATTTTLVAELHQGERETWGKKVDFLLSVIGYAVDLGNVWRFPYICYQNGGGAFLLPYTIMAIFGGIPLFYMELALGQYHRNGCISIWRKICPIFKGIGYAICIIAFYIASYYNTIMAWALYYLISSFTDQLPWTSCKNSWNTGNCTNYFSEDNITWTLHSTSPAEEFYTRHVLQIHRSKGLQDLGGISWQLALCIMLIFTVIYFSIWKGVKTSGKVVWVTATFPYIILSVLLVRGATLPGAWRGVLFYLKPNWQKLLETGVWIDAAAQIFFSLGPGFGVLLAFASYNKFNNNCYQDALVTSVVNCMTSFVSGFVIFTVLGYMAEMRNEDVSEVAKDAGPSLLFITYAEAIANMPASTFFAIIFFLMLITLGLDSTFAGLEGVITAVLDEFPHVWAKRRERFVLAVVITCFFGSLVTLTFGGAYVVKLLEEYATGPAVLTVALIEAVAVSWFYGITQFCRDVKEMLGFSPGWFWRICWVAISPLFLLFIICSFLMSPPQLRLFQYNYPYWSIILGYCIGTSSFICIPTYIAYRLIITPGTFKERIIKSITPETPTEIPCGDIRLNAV
Sequence of serotoninergic 5-HT2A receptor (P28223 whole entry): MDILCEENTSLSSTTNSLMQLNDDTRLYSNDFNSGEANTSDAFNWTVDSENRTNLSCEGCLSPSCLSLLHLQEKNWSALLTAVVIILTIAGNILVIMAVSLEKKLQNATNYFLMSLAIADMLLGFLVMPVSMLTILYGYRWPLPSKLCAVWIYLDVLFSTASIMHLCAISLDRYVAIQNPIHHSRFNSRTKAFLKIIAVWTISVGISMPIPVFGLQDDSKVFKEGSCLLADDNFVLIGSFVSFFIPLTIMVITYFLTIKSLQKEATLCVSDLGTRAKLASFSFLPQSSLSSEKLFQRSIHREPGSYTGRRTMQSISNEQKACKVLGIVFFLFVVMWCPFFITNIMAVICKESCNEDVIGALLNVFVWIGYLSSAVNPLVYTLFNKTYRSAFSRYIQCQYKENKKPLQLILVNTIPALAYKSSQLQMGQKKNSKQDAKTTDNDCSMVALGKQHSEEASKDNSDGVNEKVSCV
Sequence of serotoninergic 5-HT6 receptor (P50406 whole entry): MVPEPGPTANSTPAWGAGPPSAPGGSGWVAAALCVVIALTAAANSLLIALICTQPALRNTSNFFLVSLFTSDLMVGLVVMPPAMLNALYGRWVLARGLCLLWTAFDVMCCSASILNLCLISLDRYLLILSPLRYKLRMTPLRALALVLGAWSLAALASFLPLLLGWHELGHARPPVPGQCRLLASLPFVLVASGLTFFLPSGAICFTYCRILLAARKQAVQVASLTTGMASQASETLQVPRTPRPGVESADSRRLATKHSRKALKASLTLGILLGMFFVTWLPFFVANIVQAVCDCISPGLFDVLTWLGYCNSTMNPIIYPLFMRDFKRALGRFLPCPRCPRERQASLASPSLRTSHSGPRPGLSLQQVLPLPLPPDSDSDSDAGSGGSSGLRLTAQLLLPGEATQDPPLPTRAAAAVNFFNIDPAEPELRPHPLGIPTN
T5 sequence (P20309 whole entry): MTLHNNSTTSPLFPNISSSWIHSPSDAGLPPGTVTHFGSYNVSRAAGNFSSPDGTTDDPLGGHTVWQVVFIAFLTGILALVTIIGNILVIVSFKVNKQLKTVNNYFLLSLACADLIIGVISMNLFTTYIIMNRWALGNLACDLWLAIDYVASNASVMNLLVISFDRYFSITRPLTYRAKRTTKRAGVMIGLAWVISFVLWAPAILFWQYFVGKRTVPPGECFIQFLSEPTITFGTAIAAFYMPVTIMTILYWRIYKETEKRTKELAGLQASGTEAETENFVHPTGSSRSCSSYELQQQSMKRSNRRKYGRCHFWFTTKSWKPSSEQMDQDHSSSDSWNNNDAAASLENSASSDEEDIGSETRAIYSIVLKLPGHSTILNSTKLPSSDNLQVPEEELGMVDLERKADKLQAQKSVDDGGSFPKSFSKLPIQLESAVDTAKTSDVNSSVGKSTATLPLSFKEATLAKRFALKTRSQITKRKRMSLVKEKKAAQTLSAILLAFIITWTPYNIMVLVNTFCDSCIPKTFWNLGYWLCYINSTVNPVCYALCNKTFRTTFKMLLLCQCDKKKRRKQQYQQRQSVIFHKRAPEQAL

## Cc1[nH]c2ccc(Cl)cc2c1C1=CCN(CCCNS(=O)(=O)c2cccc(O)c2)CC1 [Compound 445, N-[3-[4-(5-Chloro-2-methyl-1H-indol-3-yl)-3,6-dihydro-2H-pyridin-1-yl]propyl]-3-hydroxybenzenesulphonamide]
[1]
  inhibition at 1 µM: 97%
[2]
  inhibition at 1 µM: 67%
[3]
  inhibition at 1 µM: 69%
[4]
  inhibition at 1 µM: 98%
[5]
  inhibition at 1 µM: 68%
[6]
  inhibition at 1 µM: 93%
[7]
  inhibition at 1 µM: 84%
[8]
  inhibition at 1 µM: 98%
[9]
  inhibition at 1 µM: 60%
[10]
  hERG [%]: 2%
[11]
  inhibition at 1 µM: 78%
[12]
  inhibition at 1 µM: 27%
[13]
  σ [%]: 67%
[14]
  α1 [%]: 50%
